According to patent US5635537A, “8-substituted-2-aminotetralins” (Astra Aktiebolag, priority 1989, dated 1997):
Where a name gives a salt, the structure may show the parent alone.

These compounds were tested against T1, 5HT1A (Rattus norvegicus, UniProt P19327) (assay: 5HT1A binding assay (receptor binding, 3H-8-OH-DPAT, rat cerebral cortex + hippocampus)). Conditions: 3H-8-OH-DPAT (0.25 to 8 nM), rat cerebral cortex + hippocampus homogenate, 37° C., 10 min, pH 7.5.
T1 construct: Cerebral cortex + hippocampus from each rat was dissected and homogenized; from tissue; host or cells: rat cerebral cortex + hippocampus homogenate
T1 sequence (P19327 1-422): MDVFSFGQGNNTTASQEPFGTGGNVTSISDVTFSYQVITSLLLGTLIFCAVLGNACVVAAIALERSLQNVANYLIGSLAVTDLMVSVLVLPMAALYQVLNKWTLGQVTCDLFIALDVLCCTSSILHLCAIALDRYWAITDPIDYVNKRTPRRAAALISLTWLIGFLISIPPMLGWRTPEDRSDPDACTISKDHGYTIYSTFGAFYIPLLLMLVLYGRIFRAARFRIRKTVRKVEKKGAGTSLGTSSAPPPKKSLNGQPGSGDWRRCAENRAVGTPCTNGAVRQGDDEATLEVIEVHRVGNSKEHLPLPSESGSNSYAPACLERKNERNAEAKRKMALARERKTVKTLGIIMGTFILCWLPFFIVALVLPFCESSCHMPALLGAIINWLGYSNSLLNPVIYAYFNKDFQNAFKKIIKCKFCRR
Description: Another observation is that some of these compounds have a particularly good oral bioavailability. In order to evaluate the affinity for this subgroup of/the 5-HT-receptors, the effects on various receptors in rat brain were measured in vitro using receptor assays (Ki nM).
5HT1A binding assay. Cerebral cortex + hippocampus from each rat was dissected and homogenized in 15 ml ice-cold 50 mM Tris-HCl buffer 4.0 mM CaCl2 and 5.7 mM ascorbic acid, pH 7.5 with an Ultra-Turrax (Janke & Kunkel, Staufen, FRG) for ten s. After centrifugation for 12.5 min at 17,000 rpm (39,800×g in a Beckman centrifuge with a chilled JA-17 rotor (Beckman, Palo Alto, Calif., USA), the pellets were resuspended in the same buffer and homogenization and centrifugation repeated. To each pellet 5 ml ice-cold 0.32M sucrose were added and homogenized for 5 sec. These samples were kept frozen at -70° C. When used they were diluted with the buffer to 8 mg tissue/ml and homogenized for 10 sec.
The tissue homogenates were incubated for ten min at 37° C. and then supplied with 10 μM pargyline followed by reincubation for 10 min.
The binding assay followed that described by Peroutka, J. Neurochem. 47, 529-540, (1986). The incubation mixture (2 ml) contained ^3 H-8-OH-DPAT (0.25 to 8 nM), 5 mg/ml tissue homogenate in 50 mM Tris-HCl buffer containing 4.0 mM CaCl2 and 5.7 mM ascorbic acid, pH 7.5. Six different concentrations of ^3 H-8-OH-DPAT were analyzed. Binding experiments were started by the addition of tissue homogenate and followed by incubation at 37° C. for ten min. The incubation mixtures were filtered through Whatman GF/B glass filters with a Brandel Cell Harvester (Gaithersburg, Md., USA). The filters were washed twice with 5 ml ice-cold 50 mM Tria-HCl buffer, pH 7.5, and counted with 5 ml Ready-solv HP (Beckman) in a Beckman LS 3801 scintillation counter. Non-specific binding was measured by the addition of 10 μM 5-HT to the reaction mixture. The binding data was processed by non-linear least squares computer/analysis (Munson and Rodbard, Anal. Biochem. 107, 220-239, (1980).

**Q.** For `CCCN(CCC)C1CCc2cccc(C(C)=O)c2C1` (racemic) [Example 2, (±)-8-Acetyl-2-(dipropylamino)tetralin hydrochloride], which Ki is on record?
**A.** Its Ki is 0.9 nM.

**Q.** For `CCCN(CCC)C1CCc2cccc(-c3ccco3)c2C1` (racemic) [Example 11, (±)-8-(2-Furanyl)-2-(dipropylamino)tetralin oxalate], which Ki is on record?
**A.** The Ki was 1.5 nM.

**Q.** For `CCCN(CCC)C1CCc2cccc(C(C)=O)c2C1` (single isomer, unassigned; (+)) [Example 6, (+)-8-Acetyl-2-(dipropylamino)tetralin hydrochloride], which Ki is on record?
**A.** Its Ki is 1.7 nM.
